Source: US20240423904A1, “Systems and Methods for Controlling Chemical Reactions Using Ultrasound” (priority 2023, published 2024)

Columns and labels:
[1] = Thermally activated release of camptothecin from mechanophore bis-initiator, 1H NMR and LCMS; format: physicochemical; conditions: 24 h at 100° C. in toluene-d8, then diluted into 3:1 acetonitrile/methanol
Description: Several embodiments provide confirmation of CPT release via ^1H NMR spectroscopy and LCMS. Prior to mechanochemical activation studies, we first confirmed that camptothecin was released in polar protic solvent upon unmasking of the expected unstable furfuryl carbonate. To enable characterization, the furfuryl carbonate species was generated thermally from small molecule initiator 1-CPT. Masked furfuryl carbonate 1-CPT was dissolved in toluene-d8 and analyzed by ^1H NMR spectroscopy before and after heating for 24 h at 100° C. Comparison to spectrum of the expected maleimide fragment confirmed significant thermal retro-Diels-Alder reaction occurred under these conditions. A drop of this solution was then diluted into 3:1 acetonitrile/methanol and analyzed by LCMS (gradient of 0-50% acetonitrile/water over 4 minutes).

[2] = Stability of free CPT upon exposure to FUS, HPLC; format: physicochemical; conditions: FUS 10 min, presence or absence of GVs (1.4 nM)
Description: Experiments were performed in duplicate on a sample of CPT in water (˜3 μM). After insonation, samples were diluted 3:1 with a stock solution of IS (40 μM) and concentrations were determined from integration of the peak corresponding to CPT relative to that of the internal standard and scaled by 4/3 to account for dilution.

Raji cells = assay: MTT cell viability assay on Raji cells; format: cell-based; conditions: Homo sapiens, 48 h, pure CPT, 2 days at 37° C.
Description: Raji cells were incubated in RPMI 1640 media with 10% fetal bovine serum and 1% antibacterial Penicillin/Streptomycin (PenStrep) at 37° C. and 5% CO2. An MTT colorimetric assay was used to quantify cell viability.
Raji cells were used to evaluate the effectiveness of CPT release for potential chemotherapy. Raji cells were incubated in RPMI 1640 media, with 10% fetal bovine serum and 1% antibacterial Penicillin/Streptomycin (PenStrep) at 37° C. and 5% CO2. The instructions provided by the manufacturer (Abcam) were followed to perform the MTT assay. Approximately 10,000 Raji cells suspended in 150 μL of media were seeded into each well of a 96-well plate. Subsequently, 50 μL of polymer sample (or pure CPT) at varying concentrations was added to corresponding wells. For calibration purposes, wells without cells and wells with only cells and media were also prepared, representing 0% and 100% cell viability, respectively. After 48 hours of incubation, cells were spun down inside the plate and media were carefully aspirated. Then 50 μL of serum free media and 50 μL of MTT solution were added to each well. Following a 3 h incubation, 150 μL MTT solution was added to each well. […] The absorbance at 590 nm was measured by a microplate reader (TECAN Spark) to quantify the cell viability in each well. Cell viability is calculated using eq.

Row | Compound | release of CPT after thermal retro-Diels-Alder reaction [1] | stability upon exposure to FUS [2] | EC50 (Raji cells) [nM]
1 | CC[C@@]1(OC(=O)OC(C)[C@]23O[C@](COC(=O)C(C)(C)Br)(C=C2Oc2ccccc2)[C@@H]2C(=O)N(CCOC(=O)C(C)(C)Br)C(=O)[C@@H]23)C(=O)OCc2c1cc1n(c2=O)Cc2cc3ccccc3nc2-1 (stereo partly drawn) [1-CPT, ((3aR,4R,7S,7aS)-2-(2-((2-bromo-2-methylpropanoyl)oxy)ethyl)-7-(1-(((((S)-4-ethyl-3,14-dioxo-3,4,12,14-tetrahydro-1H-pyrano[3′,4′:6,7]indolizino[1,2-b]quinolin-4-yl)oxy)carbonyl)oxy)ethyl)-1,3-dioxo-6-phenoxy-1,2,3,3a,7,7a-hexahydro-4H-4,7-epoxyisoindol-4-yl)methyl 2-bromo-2-methylpropanoatebromo-2-methylpropanoate] | CPT is released |  | 
2 | CC[C@@]1(O)C(=O)OCc2c1cc1n(c2=O)Cc2cc3ccccc3nc2-1 [CPT, camptothecin] |  | stable | ~25
